Experimental data taken from publication PMC8773409, “Tetrapeptides Modelled to the Androgen Binding Site of ZIP9 Stimulate Expression of Tight Junction Proteins and Tight Junction Formation in Sertoli Cells” (Biology, 2021).

What was measured:
[1] = test system: ZO-1 expression in 93RS2 cells; assay: Immunofluorescence of ZO-1 in 93RS2 cells; assay type: cell-based, rat; settings: 10 nM testosterone or 10 µM peptide, 24 h
[2] = test system: 93RS2 Sertoli cells (tight junction formation); assay: Transepithelial electrical resistance (TER) across 93RS2 monolayers; assay type: cell-based, rat; settings: ZIP9-siRNA; 10 nM testosterone or 10 µM peptides; up to 72 h
Procedure: (§1) The medium was replaced every two days.
A total of 3 × 10^4 cells were added to 0.4-µm pore ThinCertsTM (Greiner Bio-one GmbH, Frickenhausen, Germany) arranged within 1-cm wells of a 24-well plate. Cells were cultured for 24 h. Stimulation was then carried out with either testosterone or peptides at concentrations of 0.1, 1, 10, or 100 nM (testosterone) or 0.1, 1, 10, or 100 µM (peptides). Control incubations received ethanol vehicle only. TER was determined after 0, 24, 48, and 72 h, with the first measurement being made immediately after addition of testosterone or peptides. Stimulants remained in the cell medium for the entire duration of the experiment, and during this time the medium was not renewed. A Millicell ERS-2 epithelial Volt-Ohm Meter (Merck Millipore, Darmstadt, Germany) was used to measure TER. Each experiment was repeated three times. Similar experiments were carried out after silencing expression of ZIP9 by siRNA.
Data were analyzed by GraphPad Prism4 software and by applying either the unpaired t-test with Welch’s corrections or one-way ANOVA with repeated measures and Dunnett´s comparison of all data to the control. Significance was accepted at p ≤ 0.05.

[3] = test system: CREB/ATF-1 phosphorylation (via ZIP9) in 93RS2 cells; assay: Western blot of phospho-CREB/phospho-ATF-1 in 93RS2 Sertoli cells; assay type: cell-based, rat
Procedure: as §1
(§2) A total of 1 × 10^5 93RS2 cells were grown in 10-cm culture dishes as described above. Cells were then incubated for 24 h with 1% FBS before treatment with various concentrations of the peptides dissolved in medium or testosterone dissolved in ethanol; equal amounts of ethanol were also added to the peptide-treated cells and to control incubations. After 30 min of incubation the medium was removed by aspiration, and cells were washed twice with ice-cold PBS (without Ca^2+ or Mg^2+; Thermo Fisher Scientific, Darmstadt, Germany) and then lysed in 400 µL of a commercially available cell lysis buffer (Cell Signaling Technology, Frankfurt, Germany) according to the protocol of the provider. Immediately before use, 1 μM PMSF, 1× protease inhibitor cocktail (Roche, Mannheim, Germany), and 2 µg/mL pepstatin were added to the lysis buffer. All lysis steps were carried out on ice. […] After centrifugation of the lysates at 4 °C for 10 min at 13,000× g, the protein concentration in the supernatants was determined using a bicinchoninic acid (BCA) protein assay reagent kit (Pierce, Rockford, IL, USA) with inclusion of the lysis buffer in the standard curve.
(§3) For Western blotting, 10 µg of protein from cell lysates was separated by SDS-PAGE on slab gels containing 10% acrylamide and 0.3% N,N′-methylene-bis-acrylamide. […] The resulting chemiluminescence was recorded by exposure to film, which was analyzed with the software program ImageJ (freely available at http://rsbweb.nih.gov/ij/ (accessed on 31 December 2021)). Loading differences in the various Western blots were corrected by taking into consideration the optical density of bands corresponding to unphosphorylated Erk1/2 bands or total actin detected in Western blots that were run in parallel. […]
Data were analyzed by GraphPad Prism4 software and by applying either the unpaired t-test with Welch’s corrections or one-way ANOVA with repeated measures and Dunnett´s comparison of all data to the control. […]

[4] = test system: total Erk1/2 in 93RS2 cells; assay: Expression of total Erk1/2 in 93RS2 lysates; assay type: cell-based, rat; settings: lysates of treated 93RS2 cells; data not shown
Procedure: as §2, with “provider.” for “provider. Immediately before use, 1 μM PMSF, 1× protease inhibitor cocktail (Roche, Mannheim, Germany), and 2 µg/mL pepstatin were added to the lysis buffer. All lysis steps were carried out on ice.”
For Western blotting, 10 µg of protein from cell lysates was separated by SDS-PAGE on slab gels containing 10% acrylamide and 0.3% N,N′-methylene-bis-acrylamide. […] The resulting chemiluminescence was recorded by exposure to film, which was analyzed with the software program ImageJ (freely available at http://rsbweb.nih.gov/ij/ (accessed on 31 December 2021)). […]

[5] = test system: Erk1/2 phosphorylation (via ZIP9) in 93RS2 cells; assay: Western blot of phospho-Erk1/2 in 93RS2 Sertoli cells; assay type: cell-based, rat
Procedure: as §1
A total of 1 × 10^5 93RS2 cells were grown in 10-cm culture dishes as described above. Cells were then incubated for 24 h with 1% FBS before treatment with various concentrations of the peptides dissolved in medium or testosterone dissolved in ethanol; equal amounts of ethanol were also added to the peptide-treated cells and to control incubations. […] After centrifugation of the lysates at 4 °C for 10 min at 13,000× g, the protein concentration in the supernatants was determined using a bicinchoninic acid (BCA) protein assay reagent kit (Pierce, Rockford, IL, USA) with inclusion of the lysis buffer in the standard curve.
as §3

claudin-5 in 93RS2 cells = assay: Immunofluorescence of claudin-5 in 93RS2 cells; assay type: cell-based, rat; settings: 10 nM testosterone or 10 µM peptide, 24 h
[6] = test system: CREB/ATF-1 phosphorylation in 93RS2 cells; assay: Immunofluorescence of phospho-CREB/phospho-ATF-1 in 93RS2 cells; assay type: cell-based, rat; settings: 10 nM testosterone or 10 µM peptide, 30 min
Procedure: as §1
(§4) Each chamber of 4-chamber slides was plated with 1 × 10^4 93RS2 cells and cultured as described above to approximately 80% confluence. Incubation was then carried out with either 10 nM testosterone or 10 µM of each of the peptides or with vehicle only (control). The medium was removed by aspiration after 30 min, and cells were fixed for 15 min in absolute methanol containing DAPI (4′,6-diamidino-2-phenylindole). After aspirating the fixative, cells were treated with blocking solution (3% BSA and 0.3% Triton X-100 in PBS) for 1 h. […]
(§5) For visualization by immunofluorescence, the medium containing the primary antibody was replaced with PBS containing 1% BSA, 0.3% Triton X-100, and the secondary antibody (goat anti-rabbit IgG diluted at 1:500 in 2% FCS, 0.1 Triton X-100 in PBS) labeled with AlexaFluor 488 (Life Technologies, Darmstadt, Germany). […] An inverse Olympus IX81 microscope equipped with the corresponding fluorescence system (Olympus, Hamburg, Germany) was used to acquire images.
(§6) Fluorescence was measured according to the instructions of the ImageJ software program (freely available at http://rsbweb.nih.gov/ij/, accessed on 23 December 2021) according to the protocol provided (http://www.slu.se/PageFiles/388774/Pacho%20ImageJ¬¬%20-measuring-cell-fluo¬rescence.pdf, accessed on 23 December 2021). Only green fluorescence was considered. […]

claudin-1 in 93RS2 cells = assay: Immunofluorescence of claudin-1 in 93RS2 cells; assay type: cell-based, rat; settings: 10 nM testosterone or 10 µM peptide, 24 h
[7] = test system: Erk1/2 phosphorylation in 93RS2 cells; assay: Immunofluorescence of phospho-Erk1/2 in 93RS2 cells; assay type: cell-based, rat; settings: 10 nM testosterone or 10 µM peptide, 30 min, n = 3 × 25
Procedure: as §1, §4, §5, §6

[8] = test system: claudin-1 and claudin-5 expression in rodent Sertoli cells; parameters: method as in PMID 27164415, PMID 12851029, PMID 20403878, doi:10.1093/biolreprod/83.s1.109; settings: ref [6],[29],[34],[35]; cited from earlier work
[9] = test system: androgen binding site of ZIP9 on 93RS2 cells; assay: Cell-surface labeling with testosterone-BSA-FITC (displacement); settings: 20 min; for labeling of 93RS2 cells by fluorescent conjugate: 5 µM, room temperature, no competitor, ZIP9 expressed
Procedure: Cells were cultured in a humidified incubator (37 °C, 5% CO2) in 1:1 DMEM:Ham’s F-12 medium with L-glutamine supplemented with 10% (v/v) fetal bovine serum (FBS) and 1% (v/v) penicillin/streptomycin. The medium was replaced every two days.
A total of 93 RS2 cells were cultured at a density of 5 × 10^3 cells per well in 24-well plates as described above. After reaching about 80% confluence, the cells were treated with either 10 nM testosterone or 1 µM of each of the peptides for 1 h. Both peptide-treated cells and controls were also treated with ethanol vehicle at the same concentration as other plates of cells treated with testosterone dissolved in ethanol. […] After incubation for an additional 20 min at room temperature, the medium was aspirated and cells were fixed in 400 µL ice-cold methanol containing 20 ng of 4,6-diamino-2-phenylindole (DAPI) at room temperature. This solution was aspirated after 15 min and cells were washed with 700 μL PBS. Cell imaging was carried out in 400 µL PBS using an inverse Olympus IX81 microscope (Olympus, Hamburg, Germany).
In order to account for non-specific binding, cells were incubated for 20 min with 5 µM BSA-FITC (lacking the testosterone moiety) diluted in Tris-Buffer (pH 7.2) at room temperature. After washing twice with PBS and fixing in absolute methanol containing DAPI for 15 min, images were obtained as described above.

ZIP9 = ZIP9 protein immunofluorescence after siRNA silencing; assay type: cell-based, rat; settings: ZIP9-siRNA-treated 93RS2 cells; n = 30, means ± SEM
Procedure: For visualization by immunofluorescence, the medium containing the primary antibody was replaced with PBS containing 1% BSA, 0.3% Triton X-100, and the secondary antibody (goat anti-rabbit IgG diluted at 1:500 in 2% FCS, 0.1 Triton X-100 in PBS) labeled with AlexaFluor 488 (Life Technologies, Darmstadt, Germany). This medium was removed by aspiration after 1 h at room temperature and cells were washed in PBS 3 times. All incubation steps with UV-sensitive reagents were carried out in the dark. An inverse Olympus IX81 microscope equipped with the corresponding fluorescence system (Olympus, Hamburg, Germany) was used to acquire images.
as §6, with “considered. The fluorescence of 3 × 25 cells closest to the diagonals of photomicrographs from 3 independent experiments was considered for statistical analysis.” for “considered.”
A total of 6 × 10^4 93RS2 cells were cultured in 2-cm wells of a 6-well plate for 24 h. […] The concentration of the extracted mRNA was quantified by the NanodropTM One spectrophotometer (Thermo Fisher Scientific, Schwerte, Germany). […]

ZIP9 mRNA = assay: RT-PCR of ZIP9 mRNA after siRNA silencing; assay type: cell-based, rat; settings: ZIP9-siRNA-treated 93RS2 cells
Procedure: A total of 6 × 10^4 93RS2 cells were cultured in 2-cm wells of a 6-well plate for 24 h. Thereafter, cells were treated for 48 h either with ZIP9-specific siRNA (ZIP9-siRNA; 5′GGAUUAAGUAAGAGCAGUAtt3′ and 5′UACUGCUCUUACUUAAUCCta3′) to silence ZIP9 expression or with an appropriate negative control siRNA (nc-siRNA), as described previously. ZIP9-siRNA and nc-siRNA were part of the kit Silencer® Select Pre-designed siRNA, provided by Invitrogen (Thermo Fisher Scientific, Schwerte, Germany). After the siRNA treatment, RNeasy® Mini Kit (Qiagen GmbH, Hilden, Germany) was used to isolate mRNA. The concentration of the extracted mRNA was quantified by the NanodropTM One spectrophotometer (Thermo Fisher Scientific, Schwerte, Germany). Samples were measured in duplicate and the average values were used.
RT-PCR was applied in order to assess the success of silencing ZIP9 expression by siRNA. mRNA that had been isolated from cells treated with either nc-siRNA or ZIP9-specific siRNA was processed to cDNA using the Reverse Transcription System (Promega GmbH, Mannheim, Germany) according to the protocol of the provider. A total of 1 µg cDNA, quantified by the NanodropTM One spectrophotometer, was used in the PCR-Master-Mix ready-to-load (Bio&SELL GmbH, Feucht, Germany) to detect ZIP9-specific cDNA. […]

[10] = 30 min, T 0.1-100 nM, peptides 0.1-100 µM, Western blot

C[C@]12CC[C@H]3[C@@H](CCC4=CC(=O)CC[C@@]43C)[C@@H]1CC[C@@H]2O [testosterone]
ZO-1 expression, ZIP9 silenced ([1]; ZIP9-siRNA): did not respond | ZO-1 expression, ZIP9 expressed ([1]; nc-siRNA): stimulated the expression of zona occludens (ZO-1) | TER increase, ZIP9 silenced [2]: failed to stimulate TER increase | stimulation of CREB/ATF-1 phosphorylation, in words [3, 10]: stimulate the phosphorylation of the transcription factors CREB and ATF-1 | EC50 ([3]; Rattus norvegicus, 0.5 h, read-out: EC50 for CREB and ATF-1 phosphorylation (approximate, Discussion)): ~0.5 nM | concentration of maximum effect on CREB/ATF-1 phosphorylation ([3]; testosterone (Discussion)): 10 nM | effect on expression of total Erk1/2 [4]: without affecting the expression of the enzyme protein | stimulation of Erk1/2 phosphorylation, in words [5, 10]: stimulated in a concentration-dependent manner the phosphorylation of Erk1/2 | EC50 ([5]; Rattus norvegicus, 0.5 h, read-out: EC50 for stimulation of Erk1/2 phosphorylation (approximate, Discussion)): ~0.5 nM | claudin-5 expression and localization, ZIP9 silenced (claudin-5 in 93RS2 cells; ZIP9-siRNA): Only basal levels of Claudin-5 are detected | claudin-5 expression, ZIP9 expressed (claudin-5 in 93RS2 cells; nc-siRNA): stimulated the expression of claudin-5 | phosphorylation of CREB/ATF-1 by immunofluorescence, ZIP9 silenced ([6]; ZIP9-siRNA-treated cells): complete loss of the stimulatory effect | phosphorylation of CREB/ATF-1 within nuclei by immunofluorescence, ZIP9 expressed ([6]; nc-siRNA-treated cells): stimulated phosphorylation of the transcription factors within the nuclei | claudin-1 distribution, ZIP9 silenced (claudin-1 in 93RS2 cells; ZIP9-siRNA): This re-distribution was not observed | claudin-1 distribution, ZIP9 expressed (claudin-1 in 93RS2 cells; nc-siRNA): triggered re-distribution of claudin-1 from the cytosol to the membranes or to the nuclei | claudin-1 expression level (claudin-1 in 93RS2 cells; nc-siRNA): do not seem to influence the expression level of claudin-1 | phosphorylation of Erk1/2 by immunofluorescence, ZIP9 silenced ([7]; ZIP9-siRNA-treated cells): abolished the stimulation of Erk1/2 phosphorylation | phosphorylation of Erk1/2 by immunofluorescence, ZIP9 expressed ([7]; nc-siRNA-treated cells): triggered the phosphorylation of Erk1/2 | claudin-1 and claudin-5 expression [8]: stimulate claudin-1 and claudin-5 expression

BSA-FITC: BSA-FITC (lacking the testosterone moiety)
labeling of 93RS2 cells by fluorescent conjugate [9]: Relatively low signals of green fluorescence

Testosterone 3-(O-carboxymethyl)oxime:BSA-fluorescein isothiocyanate [T-BSA-FITC]
labeling of 93RS2 cells by fluorescent conjugate [9]: uniform green labeling of the extracellular surface of the cells | labeling of cell membranes by testosterone-BSA-FITC, ZIP9 silenced ([9]; ZIP9-siRNA-treated cells, 5 µM T-BSA-FITC): completely prevented

5′GGAUUAAGUAAGAGCAGUAtt3′ and 5′UACUGCUCUUACUUAAUCCta3′ (chain 1 GGAUUAAGUAAGAGCAGUATT; chain 2 UACUGCUCUUACUUAAUCCTA; siRNA; chemistry not fully specified) [ZIP9-siRNA, ZIP9-specific siRNA to silence ZIP9 expression]
ZIP9-specific immunofluorescence remaining vs control conditions (ZIP9): 7.93 ± 1.1% | presence of ZIP9-specific mRNA/cDNA vs nc-siRNA (ZIP9 mRNA): greatly reduced
